Reference: ChEMBL document CHEMBL2321810, “QSAR investigation of NaV1.7 active compounds using the SVM/Signature approach and the Bioclipse Modeling platform” (Bioorg Med Chem Lett, 2013)

Each compound was assayed against Sodium channel protein type 9 subunit alpha (Homo sapiens, UniProt Q15858) (assay: cell-based).
Sodium channel protein type 9 subunit alpha, sequence (Q15858 whole entry): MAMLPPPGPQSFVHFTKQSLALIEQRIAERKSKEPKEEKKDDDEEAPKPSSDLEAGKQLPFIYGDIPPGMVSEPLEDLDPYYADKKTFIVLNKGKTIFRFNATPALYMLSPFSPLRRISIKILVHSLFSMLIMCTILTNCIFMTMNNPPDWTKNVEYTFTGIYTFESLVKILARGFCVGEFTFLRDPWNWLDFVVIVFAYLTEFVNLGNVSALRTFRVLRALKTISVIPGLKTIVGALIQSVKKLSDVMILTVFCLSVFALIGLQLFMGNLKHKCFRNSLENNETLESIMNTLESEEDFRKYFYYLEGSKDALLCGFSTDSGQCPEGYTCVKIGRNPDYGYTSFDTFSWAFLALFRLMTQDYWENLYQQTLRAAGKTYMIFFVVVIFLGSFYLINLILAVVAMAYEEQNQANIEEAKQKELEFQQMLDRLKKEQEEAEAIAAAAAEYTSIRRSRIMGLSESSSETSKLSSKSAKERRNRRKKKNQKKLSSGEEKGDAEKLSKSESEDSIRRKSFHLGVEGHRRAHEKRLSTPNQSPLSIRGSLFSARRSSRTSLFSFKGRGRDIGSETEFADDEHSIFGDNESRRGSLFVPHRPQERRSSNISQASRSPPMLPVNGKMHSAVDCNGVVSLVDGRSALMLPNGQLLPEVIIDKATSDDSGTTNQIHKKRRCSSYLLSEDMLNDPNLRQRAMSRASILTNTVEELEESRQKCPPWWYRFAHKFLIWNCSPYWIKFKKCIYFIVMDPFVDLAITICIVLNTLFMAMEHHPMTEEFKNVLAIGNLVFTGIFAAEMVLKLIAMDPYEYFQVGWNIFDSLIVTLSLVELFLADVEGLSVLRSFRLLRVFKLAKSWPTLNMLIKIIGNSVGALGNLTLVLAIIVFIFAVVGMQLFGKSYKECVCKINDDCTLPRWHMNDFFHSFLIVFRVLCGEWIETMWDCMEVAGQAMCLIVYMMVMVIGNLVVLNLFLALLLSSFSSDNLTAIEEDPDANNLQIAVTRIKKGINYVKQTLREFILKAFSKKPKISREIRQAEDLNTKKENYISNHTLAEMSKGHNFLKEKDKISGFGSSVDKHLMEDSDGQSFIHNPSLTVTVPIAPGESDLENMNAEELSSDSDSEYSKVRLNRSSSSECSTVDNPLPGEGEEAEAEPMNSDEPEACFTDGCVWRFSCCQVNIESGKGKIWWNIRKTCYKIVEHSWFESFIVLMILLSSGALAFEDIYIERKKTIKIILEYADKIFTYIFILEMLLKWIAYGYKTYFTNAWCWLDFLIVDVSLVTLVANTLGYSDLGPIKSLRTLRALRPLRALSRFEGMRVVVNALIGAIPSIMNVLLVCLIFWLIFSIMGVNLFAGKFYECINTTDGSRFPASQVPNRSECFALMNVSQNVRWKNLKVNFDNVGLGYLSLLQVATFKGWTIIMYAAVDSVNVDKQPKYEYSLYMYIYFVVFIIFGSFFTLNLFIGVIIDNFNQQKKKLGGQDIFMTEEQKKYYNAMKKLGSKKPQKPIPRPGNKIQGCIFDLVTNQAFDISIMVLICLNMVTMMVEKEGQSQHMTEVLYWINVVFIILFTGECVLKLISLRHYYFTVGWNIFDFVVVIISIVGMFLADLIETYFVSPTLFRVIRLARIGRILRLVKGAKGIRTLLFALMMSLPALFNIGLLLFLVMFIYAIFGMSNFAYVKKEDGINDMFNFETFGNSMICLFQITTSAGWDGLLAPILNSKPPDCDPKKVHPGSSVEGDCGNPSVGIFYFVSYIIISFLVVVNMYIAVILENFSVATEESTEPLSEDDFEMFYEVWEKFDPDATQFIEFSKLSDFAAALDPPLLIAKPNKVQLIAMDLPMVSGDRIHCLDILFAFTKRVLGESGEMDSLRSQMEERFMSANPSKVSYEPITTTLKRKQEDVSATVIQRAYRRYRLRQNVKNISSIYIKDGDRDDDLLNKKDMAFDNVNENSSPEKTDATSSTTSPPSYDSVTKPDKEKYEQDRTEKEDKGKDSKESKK
With `Cn1nccc1-c1cc(Cl)ccc1Oc1ccc(S(=O)(=O)Nc2ccon2)cc1C#N` the IC50 was 1.5 µM.
`CCn1nc(C)c(-c2ccccc2Oc2ccc(S(=O)(=O)Nc3ncns3)cc2C#N)c1C` showed an IC50 of 0.3 µM.
`Cc1scnc1NS(=O)(=O)c1cc(Cl)c(Oc2ccc(F)cc2-c2ccnn2C)cc1F` was tested, and the IC50 was 1 µM.
In the case of `CNc1ncc(Oc2ccc(S(=O)(=O)Nc3ncns3)cc2C#N)c(-c2ccc(F)cc2)n1`, the IC50 is reported as 12.5 µM.
Work on `N#Cc1cc(S(=O)(=O)Nc2nncs2)ccc1Oc1ccc(OC(F)(F)F)cc1-c1ccnnc1` yielded an IC50 of 0.1 µM.
Compound `NC1=NCN=C1c1cc(Cl)ccc1Oc1cc(F)c(S(=O)(=O)Nc2ccncn2)cc1Cl` has an IC50 of 0.021 µM.
For `N#Cc1cc(S(=O)(=O)Nc2ncns2)ccc1Oc1ccc(Cl)cc1-c1ccnn1C1CC1`, the IC50 was 0.017 µM.
For `CN(C)C(=O)c1cccc(-c2ccccc2)c1Oc1ccc(S(=O)(=O)c2ncns2)cc1C#N`, the IC50 was 0.74 µM.
`N#Cc1cc(S(=O)(=O)Nc2nccs2)ccc1Oc1ccccc1-c1nncn1-c1ccccc1` showed an IC50 of 10 µM.
For `Cn1nccc1-c1cccc(Oc2ccc(S(=O)(=O)Nc3nccs3)cc2C#N)c1`, the IC50 was 1 µM.
With `CC(C)(C)OC(=O)n1cc(-c2cc(Cl)ccc2Oc2cc(F)c(S(=O)(=O)Nc3nccs3)cc2F)cn1` the IC50 was 0.056 µM.
In the case of `CCn1nccc1-c1cc(F)ccc1Oc1ccc(S(=O)(=O)Nc2nccs2)cc1C#N`, the IC50 is reported as 0.09 µM.
For `N#Cc1cc(S(=O)(=O)Nc2ccccc2)ccc1Oc1ccccc1-c1ccccc1`, the IC50 was 10 µM.
Work on `N#Cc1cc(S(=O)(=O)Nc2nccs2)ccc1Oc1ccc(-c2cc(C3CC3)n[nH]2)c(Cl)c1` yielded an IC50 of 1 µM.
Work on `N#Cc1cc(S(=O)(=O)Nc2ncns2)ccc1Oc1cnc(N)nc1-c1ccc(Cl)cc1` yielded an IC50 of 10 µM.
`N#Cc1cc(S(=O)(=O)Nc2nccs2)ccc1Oc1cc(C2CC2)nn1-c1ccccn1` showed an IC50 of 10 µM.
`N#Cc1cc(S(=O)(=O)Nc2ncc(Cl)s2)ccc1Oc1ccc(F)cc1-c1cccc(N)n1` showed an IC50 of 0.01 µM.
For `N#Cc1cc(S(=O)(=O)Nc2ncns2)ccc1Oc1cccc(Br)c1-c1cn[nH]c1`, the IC50 was 0.007 µM.
`COc1cc(Oc2ccc(S(=O)(=O)Nc3ccc(F)cn3)cc2C#N)ccc1-n1cccn1` showed an IC50 of 3 µM.
Compound `N#Cc1cc(S(=O)(=O)Nc2ncns2)ccc1Oc1nccnc1-c1ccccc1` has an IC50 of 10 µM.
With `N#Cc1cc(S(=O)(=O)Nc2nncs2)ccc1Oc1ccc(Cl)cc1-c1cc(N2CCOCC2)ncn1` the IC50 was 1 µM.
In the case of `N#Cc1cc(S(=O)(=O)Nc2nccs2)ccc1Oc1ccc(-c2nccc(C(F)(F)F)n2)cc1`, the IC50 is reported as 1 µM.
`N#Cc1cnc(NS(=O)(=O)c2ccc(Oc3ccccc3-c3ccccc3)c(C#N)c2)nc1` gave an IC50 of 10 µM.
Compound `Nc1nccc(-c2cc(F)ccc2Oc2cc(F)c(S(=O)(=O)Nc3ncc(Cl)s3)cc2F)n1` has an IC50 of 1 µM.
Compound `Cc1cc(Oc2ccc(S(=O)(=O)Nc3ncc(Cl)s3)cc2C#N)n(C2CCCCC2)n1` has an IC50 of 10 µM.
For `N#Cc1cc(S(=O)(=O)Nc2nccs2)ccc1Oc1ccc(-n2cccn2)cc1C(F)(F)F`, the IC50 was 1 µM.
`Cc1nn(C(C)(C)C)cc1-c1cc(Cl)ccc1Oc1cc(F)c(S(=O)(=O)Nc2nncs2)cc1Cl` was tested, and the IC50 was 0.3 µM.
For `O=S(=O)(Nc1cscn1)c1cc(Cl)c(Oc2ccc(C(F)(F)F)cc2-c2cncc(CO)c2)cc1F`, the IC50 was 0.3 µM.
Work on `Cn1ncnc1-c1cc(Cl)ccc1Oc1ccc(S(=O)(=O)Nc2ncc(F)s2)cc1F` yielded an IC50 of 1 µM.
Compound `N#Cc1cc(S(=O)(=O)Nc2ncns2)ccc1Oc1ccccc1-c1cccc(F)c1` has an IC50 of 0.67 µM.
In the case of `Cn1cnc(-c2cc(Cl)ccc2Oc2ccc(S(=O)(=O)Nc3nccs3)cc2C#N)n1`, the IC50 is reported as 0.3 µM.
`CC(C)(C)OC(=O)n1cc(-c2cc(Cl)ccc2Oc2cc(F)c(S(=O)(=O)Nc3ncc(F)s3)cc2F)cn1` gave an IC50 of 0.025 µM.
`N#Cc1cc(S(=O)(=O)Nc2ncns2)ccc1Oc1ccc(-c2nc(CO)co2)cc1` was tested, and the IC50 was 1 µM.
Work on `N#Cc1cc(S(=O)(=O)Nc2ncns2)ccc1Oc1ccc(C(F)(F)F)cc1-c1cccnc1` yielded an IC50 of 0.012 µM.
With `Cc1cccc(-c2ccc(OC(C)C)cc2)c1Oc1ccc(S(=O)(=O)Nc2ncns2)cc1C#N` the IC50 was 0.84 µM.
`CCOCn1nncc1-c1cc(Cl)ccc1Oc1ccc(S(=O)(=O)Nc2nccs2)cc1C#N` gave an IC50 of 0.3 µM.
`CCn1nc(-c2ccc(Oc3ccc(S(=O)(=O)Nc4nccs4)cc3C#N)c(F)c2)cc1C(F)(F)F` showed an IC50 of 1 µM.
Compound `N#Cc1cc(S(=O)(=O)Nc2cnsn2)ccc1Oc1ccccc1-c1ccccc1` has an IC50 of 5.68 µM.
Work on `Cc1ccc(NS(=O)(=O)c2ccc(Oc3ccccc3-c3ccccc3)c(C#N)c2)nc1` yielded an IC50 of 3 µM.
`N#Cc1cc(S(=O)(=O)Nc2ncns2)ccc1Oc1ccc(C(F)(F)F)cc1C1=CN(O)CC=C1` gave an IC50 of 0.11 µM.
For `N#Cc1cc(S(=O)(=O)Nc2cscn2)ccc1Oc1ccc(F)cc1-c1cnn(CC(F)(F)F)c1`, the IC50 was 1 µM.
`N#Cc1cc(S(=O)(=O)Nc2ncns2)ccc1Oc1ccccc1Oc1ccccc1C(N)=O` showed an IC50 of 10 µM.
For `N#Cc1cnc(NS(=O)(=O)c2ccc(Oc3ccccc3-c3ccccc3)c(C#N)c2)s1`, the IC50 was 12.2 µM.
For `CC(C)(C)n1ccc(-c2c(F)cccc2Oc2ccc(S(=O)(=O)Nc3ncns3)cc2C#N)n1`, the IC50 was 10 µM.
For `CC(C)C1CN(c2ccc(Oc3ccc(S(=O)(=O)Nc4nccs4)cc3C#N)cc2)C(=O)N1` (configuration not stated), the IC50 was 1 µM.
`N#Cc1cc(S(=O)(=O)Nc2ncc(F)s2)ccc1Oc1ccccc1-c1ccccc1` was tested, and the IC50 was 0.53 µM.
`CCN1CC(n2nccc2-c2cc(C(F)(F)F)ccc2Oc2ccc(S(=O)(=O)Nc3cscn3)cc2C#N)C1` showed an IC50 of 0.022 µM.
For `N#Cc1cc(S(=O)(=O)Nc2ccc(F)cn2)ccc1Oc1ccc(-c2cocn2)cc1`, the IC50 was 3 µM.
`Cc1nnc(-c2ccc(Oc3ccc(S(=O)(=O)Nc4ccc(F)cn4)cc3C#N)cc2)o1` showed an IC50 of 3 µM.
Work on `N#Cc1cc(S(=O)(=O)Nc2cc(C(F)(F)F)ncn2)ccc1Oc1ccccc1-c1ccccc1` yielded an IC50 of 10 µM.
Compound `N#Cc1cc(S(=O)(=O)Nc2ncns2)ccc1Oc1ccc(Cl)cc1-c1ccnn1C1CCC1` has an IC50 of 0.012 µM.
Work on `CCn1nc(C(F)(F)F)cc1-c1cccc(Oc2ccc(S(=O)(=O)Nc3ccc(F)cn3)cc2C#N)c1` yielded an IC50 of 1 µM.
For `O=S(=O)(Nc1cscn1)c1ccc(Oc2cc(C(F)(F)F)nn2-c2ccccc2)c(F)c1`, the IC50 was 10 µM.
`NCc1cc(-c2cc(Cl)ccc2Oc2cc(F)c(S(=O)(=O)Nc3ncns3)cc2Cl)ccn1` showed an IC50 of 0.0049 µM.
For `N#Cc1cc(S(=O)(=O)Nc2nccs2)ccc1Oc1ccc(-c2cn(CC(F)(F)F)nc2N)cc1`, the IC50 was 1 µM.
`CCc1nsc(NS(=O)(=O)c2ccc(Oc3ccccc3-c3ccccc3)c(C#N)c2)n1` showed an IC50 of 10 µM.
`O=S(=O)(Nc1ncns1)c1cc(F)c(Oc2ccc(Cl)cc2C2CCNCC2)cc1F` gave an IC50 of 0.0084 µM.
For `N#Cc1cc(S(=O)(=O)Nc2nccs2)ccc1Oc1ccc(Cl)cc1-c1ccccn1`, the IC50 was 0.58 µM.
In the case of `CCn1nc(C(F)(F)F)cc1-c1ccc(Oc2ccc(S(=O)(=O)Nc3ncccc3F)cc2C#N)cc1`, the IC50 is reported as 14 µM.
Work on `Cc1cnc(NS(=O)(=O)c2ccc(Oc3ccccc3-c3ccccc3)c(C#N)c2)nc1` yielded an IC50 of 10 µM.
In the case of `Cc1ccc(Oc2ccc(S(=O)(=O)Nc3nccs3)cc2F)c(-c2ccn(C)n2)c1`, the IC50 is reported as 6.44 µM.
`Cc1nc(-c2cccc(Oc3ccc(S(=O)(=O)Nc4ccc(F)cn4)cc3C#N)c2)no1` gave an IC50 of 3 µM.
`CCn1nc(C(F)(F)F)cc1-c1ccc(Oc2ccc(S(=O)(=O)Nc3ncccn3)cc2C#N)cc1` was tested, and the IC50 was 1 µM.
With `N#Cc1cc(S(=O)(=O)Nc2ccc(F)cn2)ccc1Oc1ccc(CN2CCC2)c(F)c1` the IC50 was 30 µM.
For `N#Cc1cc(S(=O)(=O)Nc2nccs2)ccc1Oc1cnn(-c2ccc(Cl)cc2Cl)c1`, the IC50 was 1 µM.
Work on `N#Cc1cc(S(=O)(=O)Nc2nccs2)ccc1Oc1ccc(-c2cc(C(F)(F)F)ccn2)cc1` yielded an IC50 of 0.37 µM.
`Nc1cc(-c2cc(OC(F)(F)F)ccc2Oc2cc(F)c(S(=O)(=O)Nc3ncns3)cc2F)ccn1` showed an IC50 of 0.0024 µM.
